These results are taken from publication PMC6271545, “Comparative Pharmacokinetics Study of Sinomenine in Rats after Oral Administration of Sinomenine Monomer and Sinomenium Acutum Extract” (Molecules, 2014).

The structures appear in SMILES notation.

The nature of this data set: Pharmacokinetics of sinomenine in rat plasma after oral administration of sinomenine monomer and Sinomenium acutum extract. The following applies: male, Wistar.

For the molecule `COC1=C[C@H]2[C@H]3Cc4ccc(OC)c(O)c4[C@@]2(CCN3C)CC1=O` [Sinomenine, 7,8-didehydro-4-hydroxy-3,7-dimethoxy-17-methylmorphinane-6-one], for the setting “30 mg/kg”, the total exposure AUC(0-inf) came out at 32800 ± 5370 ng·h/mL, the AUC(0-t) turned out to be 29200 ± 4060 ng·h/mL, the apparent clearance CL/F is 15.6 mL/min/kg and the Cmax worked out at 5240 ± 390 ng/mL. Moreover, for the setting “30 mg/kg”, the MRT inf was determined as 7.3 ± 0.889 h, the time to peak (Tmax) was 1.08 ± 0.204 h and the half-life was 4.88 ± 0.635 h. Where the note is “60 mg/kg”, this molecule had a total exposure AUC(0-inf) of 94000 ± 11200 ng·h/mL, an AUC(0-t) of 78900 ± 5130 ng·h/mL, a CL/F of 10.8 mL/min/kg and a Cmax of 11600 ± 942 ng/mL. Where the note is “60 mg/kg”, the MRT inf is 8.8 ± 1.91 h, the Tmax was found to be 1.5 ± 0.316 h and the half-life is 5.77 ± 1.59 h.
